# Measured values reported in ChEMBL document CHEMBL4725232, “Synthesis and biological activity of new bisbenzofuran-imidazolium salts” (Bioorg Med Chem Lett, 2020).
# Columns and labels:
# Format in all cases: functional, cell-based
# [1] = system: A549; assay: Antiproliferative activity against human […] cells by MTS assay
# [2] = system: SW480; assay: Antiproliferative activity against human SW480 cells by MTS assay
# [3] = system: HL-60; assay: Antiproliferative activity against human HL60 cells by MTS assay
# [4] = system: SMMC-7721; assay: Antiproliferative activity against human SMMC7721 by MTS assay
# [5] = system: MCF7; assay: Antiproliferative activity against human MCF7 cells by MTS assay
SMILES,IC50 [1] [µM],IC50 [2] [µM],IC50 [3] [µM],IC50 [4] [µM],IC50 [5] [µM]
Cc1nc2ccccc2n1CC=C(c1cc2ccccc2o1)c1cc2ccccc2o1,> 20,> 20,> 20,> 20,> 20
Cc1cc2ncn(CC=C(c3cc4ccccc4o3)c3cc4ccccc4o3)c2cc1C,> 20,> 20,> 20,> 20,> 20
O=C(C[n+]1ccn(CC=C(c2cc3ccccc3o2)c2cc3ccccc3o2)c1)c1ccc(Br)cc1,8.47,6.17,8.4,7.86,7.29
O=C(C[n+]1ccn(CC=C(c2cc3ccccc3o2)c2cc3ccccc3o2)c1)c1ccccc1,> 20,6.44,6.95,> 20,11.2
O=C(C[n+]1ccn(CC=C(c2cc3ccccc3o2)c2cc3ccccc3o2)c1)c1ccc(-c2ccccc2)cc1,9.05,7.2,7.25,8.04,7.57
COc1ccc(C(=O)C[n+]2cn(CC=C(c3cc4ccccc4o3)c3cc4ccccc4o3)c3cc(C)c(C)cc32)cc1,8.25,5.8,8,9.46,7.97
Cc1cc2c(cc1C)[n+](CC(=O)c1ccc(-c3ccccc3)cc1)cn2CC=C(c1cc2ccccc2o1)c1cc2ccccc2o1,7.68,6.42,6.93,9.04,8.67
O=C(C[n+]1ccn(CC=C(c2cc3ccccc3o2)c2cc3ccccc3o2)c1)c1ccc2ccccc2c1,> 20,6.97,7.73,> 20,7.83
C(Cn1ccnc1)=C(c1cc2ccccc2o1)c1cc2ccccc2o1,> 20,> 20,> 20,> 20,> 20
COc1ccc(C(=O)C[n+]2ccn(CC=C(c3cc4ccccc4o3)c3cc4ccccc4o3)c2)cc1,> 20,> 20,> 20,> 20,> 20
C(Cn1cnc2ccccc21)=C(c1cc2ccccc2o1)c1cc2ccccc2o1,> 20,> 20,> 20,> 20,> 20

# Now those with a lower IC50 [1], led by results:
IC50 [1] [µM],IC50 [2] [µM],IC50 [3] [µM],IC50 [4] [µM],IC50 [5] [µM],SMILES
6.02,1.92,1.44,3.93,1.56,O=C(C[n+]1cn(CC=C(c2cc3ccccc3o2)c2cc3ccccc3o2)c2ccccc21)c1ccccc1
1.96,1.48,1.41,1.67,1.23,Cc1n(CC=C(c2cc3ccccc3o2)c2cc3ccccc3o2)c2ccccc2[n+]1CC(=O)c1ccc(-c2ccccc2)cc1
5.34,2.36,3.14,5.9,2.38,Cc1cc2c(cc1C)[n+](CC(=O)c1ccc3ccccc3c1)cn2CC=C(c1cc2ccccc2o1)c1cc2ccccc2o1
3.5,0.79,1.08,1.34,0.8,Cc1n(CC=C(c2cc3ccccc3o2)c2cc3ccccc3o2)c2ccccc2[n+]1CC(=O)c1ccccc1
7.08,4.3,4.33,6.38,3.42,Cc1cc2c(cc1C)[n+](CC(=O)c1ccccc1)cn2CC=C(c1cc2ccccc2o1)c1cc2ccccc2o1
7.42,7.93,6.27,7.81,7.05,Cc1cc2c(cc1C)[n+](CC(=O)c1ccc(Br)cc1)cn2CC=C(c1cc2ccccc2o1)c1cc2ccccc2o1
2.32,1.47,1.19,1.53,1.02,COc1ccc(C(=O)C[n+]2cn(CC=C(c3cc4ccccc4o3)c3cc4ccccc4o3)c3ccccc32)cc1
1.58,1.54,1.58,1.51,0.97,Cc1n(CC=C(c2cc3ccccc3o2)c2cc3ccccc3o2)c2ccccc2[n+]1CC(=O)c1ccc2ccccc2c1
1.47,0.88,1.11,1.38,0.64,COc1ccc(C(=O)C[n+]2c(C)n(CC=C(c3cc4ccccc4o3)c3cc4ccccc4o3)c3ccccc32)cc1
7.23,5.94,5.33,6.69,2.42,O=C(C[n+]1cn(CC=C(c2cc3ccccc3o2)c2cc3ccccc3o2)c2ccccc21)c1ccc(-c2ccccc2)cc1
1.54,1.77,1.63,1.46,1.44,O=C(C[n+]1cn(CC=C(c2cc3ccccc3o2)c2cc3ccccc3o2)c2ccccc21)c1ccc2ccccc2c1
6.46,1.43,1.73,6.05,1.63,O=C(C[n+]1cn(CC=C(c2cc3ccccc3o2)c2cc3ccccc3o2)c2ccccc21)c1ccc(Br)cc1
7.43,0.8,2.43,6.84,1.72,Cc1n(CC=C(c2cc3ccccc3o2)c2cc3ccccc3o2)c2ccccc2[n+]1CC(=O)c1ccc(Br)cc1
